Experimental findings from patent US10112926B2 (priority 2014, dated 2018) are described below.

One may read the IC50 as the midpoint of a concentration-inhibition curve.

Each structure is given as a SMILES string. Structures can show the parent of a compound that is named as a salt. Some results are limits rather than exact numbers.

Assay [1] concerns the target Vps34 (Homo sapiens (Human), UniProt Q8NEB9). The settings on record: read-out: Assay C VPS34 IC50.
The target of assay [2] is PI 4-kinase beta (Homo sapiens (Human), UniProt Q9UBF8). The note with it: read-out: Assay D PI4Kβ IC50.
Chain of PI 4-kinase beta (Q9UBF8 whole entry): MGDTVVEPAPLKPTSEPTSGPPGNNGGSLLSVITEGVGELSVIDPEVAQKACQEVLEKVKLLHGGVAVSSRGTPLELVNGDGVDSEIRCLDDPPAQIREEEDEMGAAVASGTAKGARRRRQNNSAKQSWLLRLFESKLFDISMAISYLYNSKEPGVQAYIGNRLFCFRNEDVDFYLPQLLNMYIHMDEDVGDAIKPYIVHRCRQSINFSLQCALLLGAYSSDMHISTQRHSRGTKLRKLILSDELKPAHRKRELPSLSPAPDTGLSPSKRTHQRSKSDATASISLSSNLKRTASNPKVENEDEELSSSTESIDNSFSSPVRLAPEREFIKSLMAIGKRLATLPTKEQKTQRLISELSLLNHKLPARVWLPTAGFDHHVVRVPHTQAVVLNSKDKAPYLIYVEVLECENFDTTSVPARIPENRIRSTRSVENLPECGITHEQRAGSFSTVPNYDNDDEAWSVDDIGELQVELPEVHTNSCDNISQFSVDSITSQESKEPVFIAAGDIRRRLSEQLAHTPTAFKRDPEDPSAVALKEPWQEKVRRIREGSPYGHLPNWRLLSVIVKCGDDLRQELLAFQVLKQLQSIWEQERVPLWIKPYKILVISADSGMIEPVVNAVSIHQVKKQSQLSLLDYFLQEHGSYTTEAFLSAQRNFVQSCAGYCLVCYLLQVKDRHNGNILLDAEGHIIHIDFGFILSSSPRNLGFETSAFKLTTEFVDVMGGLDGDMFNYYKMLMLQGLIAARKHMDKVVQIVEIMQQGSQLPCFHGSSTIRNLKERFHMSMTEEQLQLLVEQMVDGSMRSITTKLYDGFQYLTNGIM
The target in assay [3] is mTOR (Homo sapiens (Human), UniProt P42345). The settings on record: read-out: Assay G mTOR IC50.

Chain of Vps34 (Q8NEB9 whole entry): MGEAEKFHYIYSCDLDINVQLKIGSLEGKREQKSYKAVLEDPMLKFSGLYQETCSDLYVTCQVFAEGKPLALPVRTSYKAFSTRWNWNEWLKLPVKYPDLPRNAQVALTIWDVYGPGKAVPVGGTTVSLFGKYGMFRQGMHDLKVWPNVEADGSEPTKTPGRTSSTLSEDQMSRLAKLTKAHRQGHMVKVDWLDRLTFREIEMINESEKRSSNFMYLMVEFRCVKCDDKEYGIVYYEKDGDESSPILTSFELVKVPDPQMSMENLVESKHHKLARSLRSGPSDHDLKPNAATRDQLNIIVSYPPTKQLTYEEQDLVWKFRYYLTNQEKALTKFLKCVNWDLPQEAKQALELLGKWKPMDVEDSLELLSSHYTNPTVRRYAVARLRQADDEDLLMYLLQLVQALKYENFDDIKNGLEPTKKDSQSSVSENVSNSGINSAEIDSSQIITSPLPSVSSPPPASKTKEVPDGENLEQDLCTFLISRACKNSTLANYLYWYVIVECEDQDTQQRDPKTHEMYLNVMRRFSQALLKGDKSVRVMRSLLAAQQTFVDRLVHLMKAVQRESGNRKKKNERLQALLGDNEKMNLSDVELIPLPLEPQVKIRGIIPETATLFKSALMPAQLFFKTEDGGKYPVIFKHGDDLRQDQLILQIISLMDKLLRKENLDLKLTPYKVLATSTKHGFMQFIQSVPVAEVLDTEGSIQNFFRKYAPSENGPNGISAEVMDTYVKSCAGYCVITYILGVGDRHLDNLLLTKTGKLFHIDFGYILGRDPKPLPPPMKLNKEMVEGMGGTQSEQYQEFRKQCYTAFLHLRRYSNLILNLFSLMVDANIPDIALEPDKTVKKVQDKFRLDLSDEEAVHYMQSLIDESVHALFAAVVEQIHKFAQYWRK

Take `Cc1ccc(S(=O)(=O)NCCC(C)(C)O)cc1-c1cnc(N)c(-c2ccncc2)c1` [Example 18, 3-(2-Amino-[3,4′]bipyridinyl-5-yl)-N-(3-hydroxy-3-methyl-butyl)-4-methyl-benzenesulfonamide]: the IC50 in assay [1], in assay [2] and in assay [3] was above 9.1 µM each time.
As for `Cc1noc(-c2cc(-c3cc(S(=O)(=O)NCC(C)(C)CO)ccc3C)cnc2N)n1` [Example 37.18, 3-(6-Amino-5-(3-methyl-1,2,4-oxadiazol-5-yl)pyridin-3-yl)-N-(3-hydroxy-2,2-dimethylpropyl)-4-methylbenzenesulfonamide hydrochloride], the IC50 in assay [1], in assay [2] and in assay [3] was above 10 µM in each case.
As to `Cc1noc(-c2cc(-c3cc(S(=O)(=O)NCCC4(O)CCCC4)ccc3C)cnc2N)n1` [Example 37.11, 3-(6-Amino-5-(3-methyl-1,2,4-oxadiazol-5-yl)pyridin-3-yl)-N-(2-(1-hydroxycyclopentyl)ethyl)-4-methylbenzenesulfonamide], the IC50 was above 10 µM in assay [1], 8.1 µM in assay [2] and above 10 µM in assay [3].
As for `Cc1ncc(-c2cc(-c3cc(S(=O)(=O)N[C@H]4CC[C@H](O)CC4)ccc3C)cnc2N)s1` [Example 97, 3-(6-amino-5-(2-methylthiazol-5-yl)pyridin-3-yl)-N-((1r,4r)-4-hydroxycyclohexyl)-4-methylbenzenesulfonamide], the IC50 in assay [1] was found to be 3.8 µM; in assay [2] it was 1.34 µM; in assay [3], 6.5 µM.
The matching figures for `CCCONS(=O)(=O)c1ccc(C)c(-c2cnc(N)c(-c3nc(C)no3)c2)c1` [Example 44, 3-(6-Amino-5-(3-methyl-1,2,4-oxadiazol-5-yl)pyridin-3-yl)-4-methyl-N-propoxybenzenesulfonamide]: above 10 µM, 3.55 µM and above 10 µM.
The like results for `Cc1noc(-c2cc(-c3cc(S(=O)(=O)NOC(C)(C)C)ccc3C)cnc2N)n1` [Example 47, 3-(6-Amino-5-(3-methyl-1,2,4-oxadiazol-5-yl)pyridin-3-yl)-N-(tert-butoxy)-4-methylbenzenesulfonamide] were, in that order, above 10 µM, 4.4 µM and 4 µM.
The matching figures for `Cc1noc(-c2cc(-c3cc(S(=O)(=O)NCCC(F)(F)F)ccc3C)cnc2N)n1` [Example 48, 3-(6-Amino-5-(3-methyl-1,2,4-oxadiazol-5-yl)pyridin-3-yl)-4-methyl-N-(3,3,3-trifluoropropyl)benzenesulfonamide]: above 10 µM, 6 µM and above 10 µM.
For the molecule `Cc1noc(-c2cc(-c3cc(S(=O)(=O)N[C@H]4CC[C@H](O)CC4)ccc3C)cnc2N)n1` [Example 12, trans 3-[6-Amino-5-(3-methyl-[1,2,4]oxadiazol-5-yl)-pyridin-3-yl]-N-(4-hydroxy-cyclohexyl)-4-methyl-benzenesulfonamide, hydrochloride salt], the IC50 in assay [1] was above 10 µM; in assay [2], 5.3 µM; in assay [3], above 10 µM.
As to `Cc1ccc(S(=O)(=O)N[C@H]2CC[C@H](O)CC2)cc1-c1cnc(N)c(-c2cnn(C)n2)c1` [Example 4.5, trans 3-(6-Amino-5-(2-methyl-2H-1,2,3-triazol-4-yl)pyridin-3-yl)-N-(4-hydroxycyclohexyl)-4-methylbenzene sulfonamide hydrochloride], the IC50 in assay [1] was above 10 µM; in assay [2], 5.25 µM; in assay [3], above 10 µM.
Turning to `Cc1ccc(S(=O)(=O)NCC(C)(C)O)cc1-c1cnc(N)c(-c2nc(C3CC3)no2)c1` [Example 80, 3-(6-Amino-5-(3-cyclopropyl-1,2,4-oxadiazol-5-yl)pyridin-3-yl)-N-(2-hydroxy-2-methylpropyl)-4-methylbenzenesulfonamide hydrochloride], the IC50 was above 10 µM in assay [1], 3.55 µM in assay [2] and above 10 µM in assay [3].
In the case of `Cc1noc(-c2cc(-c3cc(S(=O)(=O)NCC4(CO)CCCC4)ccc3C)cnc2N)n1` [Example 37.13, 3-(6-Amino-5-(3-methyl-1,2,4-oxadiazol-5-yl)pyridin-3-yl)-N-((1-(hydroxymethyl)cyclopentyl)methyl)-4-methylbenzenesulfonamide], the IC50 was above 10 µM in assay [1], 5 µM in assay [2] and above 10 µM in assay [3].
In the case of `Cc1noc(-c2cc(-c3cc(S(=O)(=O)N[C@H]4CC[C@H](CO)CC4)ccc3C)cnc2N)n1` [Example 19, trans 3-[6-Amino-5-(3-methyl-[1,2,4]oxadiazol-5-yl)-pyridin-3-yl]-N-(4-hydroxymethyl-cyclohexyl)-4-methyl-benzenesulfonamide hydrochloride], the IC50 was above 10 µM in assay [1], 1.3 µM in assay [2] and above 10 µM in assay [3].
On to `Cc1ccc(S(=O)(=O)N[C@H]2CC[C@H](O)CC2)cc1-c1cnc(N)c(-c2nc(C(F)F)no2)c1` [Example 70, 3-(6-Amino-5-(3-(difluoromethyl)-1,2,4-oxadiazol-5-yl)pyridin-3-yl)-N-((1r,4r)-4-hydroxycyclohexyl)-4-methylbenzenesulfonamide hydrochloride], for which the IC50 in assay [1] is above 10 µM; in assay [2], 8.2 µM; in assay [3], above 10 µM.
Consider `Cc1ccc(S(=O)(=O)N[C@H]2CC[C@H](O)CC2)cc1-c1cnc(N)c(-c2cnn(CC(F)(F)F)c2)c1` [Example 4.2, trans 3-(6-Amino-5-(1-(2,2,2-trifluoroethyl)-1H-pyrazol-4-yl)pyridin-3-yl)-N-(4-hydroxycyclohexyl)-4-methyl-benzenesulfonamide], for which the values for the 50% inhibitory concentration (IC50) in assay [1], in assay [2] and in assay [3] were above 10 µM, 0.65 µM and 1.3 µM, respectively.
The matching figures for `Cc1noc(-c2cc(-c3cc(S(=O)(=O)NCC4(O)CCC4)ccc3C)cnc2N)n1` [Example 37.15, 3-(6-Amino-5-(3-methyl-1,2,4-oxadiazol-5-yl)pyridin-3-yl)-N-((1-hydroxycyclobutyl)methyl)-4-methylbenzenesulfonamide]: above 10 µM, 5.4 µM and above 10 µM.
The matching figures for `Cc1noc(-c2cc(-c3cc(S(=O)(=O)NCCC(C)(C)O)ccc3C)cnc2N)n1` [Example 5, 3-[6-Amino-5-(3-methyl-[1,2,4]oxadiazol-5-yl)-pyridin-3-yl]-N-(3-hydroxy-3-methyl-butyl)-4-methyl-benzenesulfonamide hydrochloride]: above 9.55 µM, 4.9 µM and 6.5 µM.
The matching figures for `Cc1cc(-c2cc(-c3cc(S(=O)(=O)NC[C@H]4CCOC4)ccc3C)cnc2N)on1` [Example 4.7, (R)-3-(6-Amino-5-(3-methylisoxazol-5-yl)pyridin-3-yl)-4-methyl-N-((tetra hydrofuran-3-yl)methyl)benzene-sulfonamide hydrochloride]: above 10 µM, 1.7 µM and 7.7 µM.
Regarding `Cc1cnc(-c2cc(-c3cc(S(=O)(=O)N[C@H]4CC[C@H](O)CC4)ccc3C)cnc2N)o1` [Example 5.2, trans 3-(6-Amino-5-(5-methyloxazol-2-yl)pyridin-3-yl)-N-(4-hydroxycyclohexyl)-4-methylbenzene sulfonamide hydrochloride], the IC50 was above 10 µM in assay [1], 0.9 µM in assay [2] and above 10 µM in assay [3].
